Key:
Format in all cases: functional
[1] = tested on: Candida albicans; assay: Antifungal activity against Candida albicans IBT 656 incubated for 24 hrs by broth microdilution method
[2] = tested on: Staphylococcus aureus; assay: Antibacterial activity against Staphylococcus aureus 8325 incubated for 12 hrs by broth microdilution method
[3] = tested on: Bacillus subtilis; assay: Antibacterial activity against Bacillus subtilis incubated for 12 hrs by broth microdilution method
[4] = tested on: Pseudomonas aeruginosa; assay: Antibacterial activity against Pseudomonas aeruginosa PAO1 incubated for 12 hrs by broth microdilution method

Compound	MIC [1] [µg/mL]	MIC [2] [µg/mL]	MIC [3] [µg/mL]	MIC [4] [µg/mL]
CC[C@H]1/C=C/[C@@H]([C@@H](C)O)OC(=O)/C(C)=C\CC(=O)Nc2cc(O)cc3c2O[C@@]2(CC1)CC(=O)[C@@H](C)[C@@H]3O2	> 50	> 50	> 50	> 50
CC[C@@H](/C=C/[C@H](O)[C@H](C)OC(=O)/C(C)=C\[C@@H]1C(=O)NC2=CC(=O)c3cc(O)c(C)cc3[C@]21O)CCC(=O)O	> 50	> 50	> 50	> 50
CC[C@@H](/C=C/[C@H](OC(=O)/C(C)=C\[C@H]1C(=O)NC2=CC(=O)c3cc(O)c(C)cc3[C@@]21O)[C@H](C)O)CCC(=O)O	> 50	> 50	> 50	> 50
CC[C@@H](/C=C/[C@H](OC(=O)/C(C)=C\[C@@H]1C(=O)NC2=CC(=O)c3cc(O)c(C)cc3[C@]21O)[C@H](C)O)CCC(=O)O	> 50	> 50	> 50	> 50

Other lines, results leading:

MIC [1] [µg/mL]	MIC [2] [µg/mL]	MIC [3] [µg/mL]	MIC [4] [µg/mL]	Compound
> 50	> 50	> 50	> 50	CC[C@@H](/C=C/[C@H](O)[C@H](C)OC(=O)/C(C)=C\C1=C2C(=CC(=O)c3cc(O)c(C)cc32)NC1=O)CCC(=O)O
> 50	> 50	> 50	> 50	CC[C@@H](/C=C/[C@H](OC(=O)/C(C)=C\C1=C2C(=CC(=O)c3cc(O)c(C)cc32)NC1=O)[C@H](C)O)CCC(=O)O
> 50	> 50	> 50	> 50	CC[C@H]1/C=C/[C@H](O)[C@@H](C)OC(=O)/C(C)=C\CC(=O)Nc2cc(O)cc3c2O[C@@]2(CC1)CC(=O)[C@H](C)[C@H]3O2

From ChEMBL document CHEMBL5634175, “Genome-Driven Discovery of Hygrocins in Streptomyces rapamycinicus” (2024)
